The target of this experiment is T1, farnesyl protein transferase (FPT), partially purified from rat brain (Rattus norvegicus, UniProt Q02293+Q04631).
T1 construct: were partially purified from rat brain by ammonium sulfate fractionation followed by Q-Sepharose
Nature of the experiment: Inhibition of farnesyl protein transferase (transfer of [3H]farnesyl to Ras-CVLS). The experiment is classed as biochemical. The settings on record: for IC50: Ras-CVLS farnesylation, partially purified rat brain FPT, read-out: FPT IC50. The method, then: 1. In vitro enzyme assays: Inhibition of farnesyl protein transferase and geranylgeranyl protein transferase.
Human farnesyl protein transferase was also expressed in E. coli, using cDNA clones encoding both the α and β subunits. […] Human farnesyl protein transferase was partially-purified from the soluble protein fraction of E. coli as described above. […] Two forms of val^12-Ha-Ras protein were prepared as substrates for these enzymes, differing in their carboxy terminal sequence. One form terminated in cysteine-valine-leucine-serine (Ras-CVLS) the other in cystein-valine-leucine-leucine (Ras-CVLL). Ras-CVLS is a substrate for the farnesyl protein transferase while Ras-CVLL is a substrate for geranylgeranyl protein transferase I. The cDNAs encoding these proteins were constructed so that the proteins contain an amino-terminal extension of 6 histidine residues. Both proteins were expressed in Escherichia coli and purified using metal chelate affinity chromatography. The radiolabelled isoprenyl pyrophosphate substrates, [^3H]farnesyl pyrophosphate and [3H]geranylgeranyl pyrophosphate, were purchased from DuPont/New England Nuclear.
The reaction was allowed to proceed for 30 minutes at room temperature and then stopped with 0.5 ml of 4% sodium dodecyl sulfate (SDS) followed by 0.5 ml of cold 30% trichloracetic acid (TCA). Samples were allowed to sit on ice for 45 minutes and precipitated Ras protein was then collected on GF/C filter paper mats using a Brandel cell harvester. […] Percent inhibition was calculated relative to the DMSO vehicle control.

Our source for the FPT inhibition and IC50 values is patent publication US20030055065A1, “Tricyclic amide and urea compounds useful for inhibition of G-protein function and for treatment of proliferative diseases” (priority 1993, published 2003).

T1 sequence (Q02293 whole entry, one chain of several): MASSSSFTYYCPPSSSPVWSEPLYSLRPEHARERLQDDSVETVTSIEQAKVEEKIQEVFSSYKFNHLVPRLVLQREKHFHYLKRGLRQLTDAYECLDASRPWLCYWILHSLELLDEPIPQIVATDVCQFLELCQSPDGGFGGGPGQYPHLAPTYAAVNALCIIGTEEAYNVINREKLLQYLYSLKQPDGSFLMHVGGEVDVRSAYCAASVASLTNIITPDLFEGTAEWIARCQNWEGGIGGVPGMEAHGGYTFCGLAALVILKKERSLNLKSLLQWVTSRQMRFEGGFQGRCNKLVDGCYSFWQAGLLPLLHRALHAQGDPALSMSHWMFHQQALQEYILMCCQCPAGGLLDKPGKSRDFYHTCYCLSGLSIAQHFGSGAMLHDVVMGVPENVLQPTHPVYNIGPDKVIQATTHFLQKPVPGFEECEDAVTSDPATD

For the compound `Cc1ccc(S(=O)(=O)NC(=O)N2CCC(=C3c4ccc(Cl)cc4CCc4cccnc43)CC2)cc1` [Example 120], where the note is “at 39 μM”, the FPT inhibition is recorded as 4% at 39 μM.
Where the note is “at 12.6 μM”, `O=C1CCC(C(=O)N2CCC(=C3c4ccc(Cl)cc4CCc4cccnc43)CC2)N1` (centres unmarked) [Example 123] displayed an FPT inhibition of 23% at 12.6 μM.
As for `Cc1cc(C(=O)N2CCC(=C3c4ccc(Cl)cc4CCc4cccnc43)CC2)cc(Cl)n1` [Example 124], the FPT inhibition (at 12.8 μM) turned out to be 37% at 12.8 μM.
`O=C(Cc1c(O)cccc1O)N1CCC(=C2c3ccc(Cl)cc3CCc3cccnc32)CC1` [Example 125]: the IC50 is 10.3 µM.
`O=C(Cc1c[nH]c2ccccc12)N1CCC(=C2c3ccc(Cl)cc3CCc3cccnc32)CC1` [Example 129] showed an FPT inhibition (at 11.8 μM) of 32% at 11.8 μM.
As for `CC(=O)N1CCC(=C2c3ccc(Cl)cc3CCc3ccc[n+](C)c32)CC1` [Example 130], where the note is “at 12.1 μM”, the FPT inhibition is 7% at 12.1 μM.
`O=C(c1cc[n+]([O-])cc1)N1CCC(=C2c3ccc(Cl)cc3CCc3ccc[n+]([O-])c32)CC1` [Example 131]: the FPT inhibition (at 13.4 μM) was found to be 16% at 13.4 μM.
Consider `CC(=O)N1CCC(=C2c3ccc(Cl)cc3CCc3c(C)cc[n+]([O-])c32)CC1` [Example 132], for which the FPT inhibition (at 15 μM) worked out at 22% at 15 μM.
For the setting “at 14.1 μM”, `CC(=O)N1CCC(=C2c3ccc(Cl)cc3CCc3cc(C(C)(C)C)c[n+]([O-])c32)CC1` [Example 133] displayed an FPT inhibition of 16% at 14.1 μM.
Regarding `CC(=O)N1CCC(=C2c3ccc(Cl)cc3CCc3c(Cl)ccnc32)CC1` [Example 135], the IC50 worked out at 7.7 µM.
As for `COc1ccnc2c1CCc1cc(Cl)ccc1C2=C1CCN(C(C)=O)CC1` [Example 136], the IC50 is 11.5 µM.
Under “at 16.3 μM”, `CC(=O)N1CCC(=C2c3ccc(Cl)cc3CC(C)c3cccnc32)CC1` (centres unmarked) [Example 137] returned an FPT inhibition of 15% at 16.3 μM.
Where the note is “at 15.2 μM”, `CC(=O)c1cnc2c(c1)CCc1cc(Cl)ccc1C2=C1CCN(C(C)=O)CC1` [Example 139] yielded an FPT inhibition of 37% at 15.2 μM.
For `CC(=O)N1CCC(=C2c3ccccc3CCc3c2[nH]c2ccccc32)CC1` [Example 140], the IC50 was 15.7 µM.
For the setting “at 50 μM”, `CC(=O)N1CCC(C2c3cc4ccccc4cc3CCc3ccc[n+]([O-])c32)CC1` (centres unmarked) [Example 141] gave an FPT inhibition of 29% at 50 μM.
For the compound `CC(=O)N1CCC(=C2c3ccncc3CCc3cc(Cl)ccc32)CC1` [Example 143], the 50% inhibitory concentration (IC50) turned out to be 35.4 µM.
Take `CC(=O)N1CCC(=C2c3ccc(Cl)cc3CCc3ncccc32)CC1` [Example 144]: the FPT inhibition (at 50 μM) is reported as 30% at 50 μM.
In the case of `O=C(c1cc[n+]([O-])cc1)N1CCC(=C2c3ccncc3CCc3cc(Cl)ccc32)CC1` [Example 144a], for the setting “at 46 μM”, the FPT inhibition turned out to be 47% at 46 μM.
In the case of `COCC(=O)N1CCC(=C2c3ccc(F)cc3CCc3cccnc32)CC1` [Example 145], the concentration for half-maximal inhibition (IC50) is greater than 10 µM.
The compound `O=C(c1cc[n+]([O-])cc1)N1CCC(=C2c3ccccc3CCc3cc(Cl)ccc32)CC1` [Example 146] showed an FPT inhibition (at 12 μM) of 45% at 12 μM.
The compound `CC(=O)N1CCC(=C2c3ccccc3CCc3cccnc32)CC1` [Example 147] returned an FPT inhibition (at 18.8 μM) of 0% at 18.8 μM.
With `CC(=O)N1CCN(C2c3ccc(Cl)cc3CCc3cccnc32)CC1C` (centres unmarked) [Example 149], the IC50 was 10.8 µM.
`CC(=O)N1CCC(C2c3ccc(Cl)cc3CCc3cccnc32)CC1` (centres unmarked) [Example 150] came in with an FPT inhibition (at 16.9 μM) of 38% at 16.9 μM.
In the case of `O=C(c1cc[n+]([O-])cc1)N1CCC(=C2c3ccccc3CCc3ccccc32)CC1` [Example 151], the IC50 came to 15 µM.
As to `O=C(c1ccc(=O)[nH]c1)N1CCC(=C2c3ccccc3CCc3ccccc32)CC1` [Example 152], the half-maximal inhibitory concentration (IC50) worked out at 15 µM.
On to `CC(=O)N1CCN(C2c3ccccc3CCc3ccccc32)CC1` [Example 153], for which the concentration for half-maximal inhibition (IC50) amounted to 29.6 µM.
As to `CC(C)(C)OC(=O)N1CCC(CC(=O)N2CCN(C3c4ccc(Cl)cc4CCc4cccnc43)CC2)CC1` (centres unmarked) [Example 193], the IC50 amounted to 7.4 µM.
With `CC(=O)N1CCCC(C(=O)N2CCN(C3c4ccc(Cl)cc4CCc4cccnc43)CC2)C1` (centres unmarked) [Example 194], the concentration for half-maximal inhibition (IC50) was 4.3 µM.
`CN1CCCC(C(=O)N2CCN(C3c4ccc(Cl)cc4CCc4cccnc43)CC2)C1` (centres unmarked) [Example 195]: the concentration for half-maximal inhibition (IC50) is 6.8 µM.
`CC(C)(C)OC(=O)N1CCC(C(=O)N2CCN(C3c4ccc(Cl)cc4CCc4cccnc43)CC2)CC1` (centres unmarked) [Example 202] yielded an FPT inhibition (at 11 μM) of 20% @.
Consider `CC(=O)N1CCCC(CC(=O)N2CCN(C3c4ccc(Cl)cc4CCc4cccnc43)CC2)C1` (centres unmarked) [Example 205], for which the half-maximal inhibitory concentration (IC50) came out at 3.1 µM.
Compound `O=C(NCC(=O)N1CCN(C2c3ccc(Cl)cc3CCc3cccnc32)CC1)OCc1ccccc1` (centres unmarked) [Example 207] returned an FPT inhibition (at 12 μM) of 40% @.
With `O=C(Cc1ccc(O)cc1)NCC(=O)N1CCN(C2c3ccc(Cl)cc3CCc3cccnc32)CC1` (centres unmarked) [Example 210], the IC50 came to 7.93 µM.
Regarding `O=C(N[C@@H](Cc1ccccc1)C(=O)N1CCN(C2c3ccc(Cl)cc3CCc3cccnc32)CC1)OCc1ccccc1` (some centres unmarked) [Example 213], where the note is “at 10 μM”, the FPT inhibition is reported as 23% @.
Turning to `CC(C)(C)OC(=O)N[C@@H](Cc1ccccc1)C(=O)N1CCN(C2c3ccc(Cl)cc3CCc3cccnc32)CC1` (some centres unmarked) [Example 214], the FPT inhibition (at 10 μM) came out at 0% @.
In the case of `NC(Cc1ccccc1)C(=O)N1CCN(C2c3ccc(Cl)cc3CCc3cccnc32)CC1` (centres unmarked) [Example 215], the FPT inhibition (at 13 μM) is reported as 30% @.
Take `O=C([C@H](Cc1ccccc1)N1C(=O)c2ccccc2C1=O)N1CCN(C2c3ccc(Cl)cc3CCc3cccnc32)CC1` (some centres unmarked) [Example 216]: under “at 10 μM”, the FPT inhibition is 34% @.
In the case of `O=C(Cc1csc2ccccc12)N1CCC(=C2c3ccc(Cl)cc3CCc3cccnc32)CC1` [Example 221], the 50% inhibitory concentration (IC50) came out at 3.71 µM.
`O=C(Cc1ccncc1)N1CCC(=C2c3ccc(Cl)cc3CCc3ccc[n+]([O-])c32)CC1` [Example 230]: the IC50 was 2.06 µM.
For `O=C(Cc1cc[n+]([O-])cc1)N1CCC(=C2c3ccc(Cl)cc3CCc3ccc[n+]([O-])c32)CC1` [Example 232], the IC50 was determined as 6 µM.
As for `O=C(Cc1cccnc1)N1CCC(=C2c3ccc(Cl)cc3CCc3cc(O)cnc32)CC1` [Example 240], the IC50 came to 3.12 µM.
Turning to `O=C(Cc1cccnc1)N1CCC(=C2c3ccc(Cl)cc3CCc3c(O)ccnc32)CC1` [Example 252], the IC50 amounted to 7.2 µM.
Consider `O=C(Cc1cccnc1)N1CCC(=C2c3ccc(Cl)cc3CCc3c2ncc(Br)c3O)CC1` [Example 253], for which the IC50 was 4.3 µM.
Take `C[S+]([O-])c1ccnc2c1CCc1cc(Cl)ccc1C2=C1CCN(C(=O)Cc2cccnc2)CC1` (centres unmarked) [Example 256]: the concentration for half-maximal inhibition (IC50) is 4.9 µM.
On to `COC(=O)CSc1ccnc2c1CCc1cc(Cl)ccc1C2=C1CCN(C(=O)Cc2cccnc2)CC1` [Example 257], for which the IC50 is 2.3 µM.
Consider `O=C(Cc1cccnc1)N1CCC(=C2c3ccc(Cl)cc3CCc3c(SCc4ccccc4)ccnc32)CC1` [Example 258], for which the half-maximal inhibitory concentration (IC50) was determined as 10.8 µM.
Take `Cn1nnnc1Sc1ccnc2c1CCc1cc(Cl)ccc1C2=C1CCN(C(=O)Cc2cccnc2)CC1` [Example 259]: the concentration for half-maximal inhibition (IC50) worked out at 2.2 µM.
`O=C(Nc1cccnc1)N1CCC(=C2c3ccc(Cl)cc3CCc3c(On4nnc5ccccc54)ccnc32)CC1` [Example 262]: the half-maximal inhibitory concentration (IC50) came out at 0.82 µM.
On to `O=C(Nc1cccnc1)N1CCC(=C2c3ccc(Cl)cc3CCc3c(O)ccnc32)CC1` [Example 263], for which the IC50 was determined as 9.8 µM.
As for `CC(C)(C(=O)N1CCC(C2c3ccc(Cl)cc3C=Cc3cccnc32)CC1)c1cccnc1` (centres unmarked) [Example 268], the half-maximal inhibitory concentration (IC50) came to 1.22 µM.
